Measurements reported in ChEMBL document CHEMBL1201862, “PubChem BioAssay data set” (2004).
Active and inactive are the calls of the source.

Columns and labels:
[1] = AlphaScreen signal interference compounds, dose response, artefact control for ARNT-TACC3 interaction inhibitor project, biochemical, luminescence, cherry-pick (AID 651705); assay type: functional;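 also: AlphaScreen bead proximity signal that flags compounds interfering with the detection technology; potency reflects signal decrease which marks the compound as an assay artifact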
[2] = Luminescence Cell-Based Dose Retest to Confirm Inhibitors of Cancer Stem Cells. [Related pubchem assays (depositor defined):AID2717, AID2721]; assay type: functional; settings: Homo sapiens
[3] = CRF-BP/CRF-R2 complex antagonists, dose response, cell-based, uHTS hits, 384-well (AID 651639); assay type: functional, Homo sapiens; settings: read-out: IC50_Mean
[4] = target: T1, Corticotropin-releasing factor receptor 2/Corticotropin-releasing factor-binding protein (Homo sapiens, UniProt P24387+Q13324); experiment: Dose Response confirmation of uHTS hits for small molecule antagonists of the CRF-binding protein and CRF-R2 receptor complex.; assay type: functional; settings: read-out: IC50_Mean
T1 sequence (Q13324 whole entry): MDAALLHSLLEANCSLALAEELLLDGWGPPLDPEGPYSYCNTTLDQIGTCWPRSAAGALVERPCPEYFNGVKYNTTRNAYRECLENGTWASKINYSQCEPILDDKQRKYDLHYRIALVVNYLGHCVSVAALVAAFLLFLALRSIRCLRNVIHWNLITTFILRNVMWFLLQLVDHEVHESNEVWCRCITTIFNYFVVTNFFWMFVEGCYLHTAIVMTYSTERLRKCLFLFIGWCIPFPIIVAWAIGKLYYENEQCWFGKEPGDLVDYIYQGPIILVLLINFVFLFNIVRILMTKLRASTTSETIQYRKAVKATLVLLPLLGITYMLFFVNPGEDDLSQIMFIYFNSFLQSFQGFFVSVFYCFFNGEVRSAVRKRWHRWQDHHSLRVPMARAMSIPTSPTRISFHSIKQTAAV
T1 sequence (P24387 whole entry): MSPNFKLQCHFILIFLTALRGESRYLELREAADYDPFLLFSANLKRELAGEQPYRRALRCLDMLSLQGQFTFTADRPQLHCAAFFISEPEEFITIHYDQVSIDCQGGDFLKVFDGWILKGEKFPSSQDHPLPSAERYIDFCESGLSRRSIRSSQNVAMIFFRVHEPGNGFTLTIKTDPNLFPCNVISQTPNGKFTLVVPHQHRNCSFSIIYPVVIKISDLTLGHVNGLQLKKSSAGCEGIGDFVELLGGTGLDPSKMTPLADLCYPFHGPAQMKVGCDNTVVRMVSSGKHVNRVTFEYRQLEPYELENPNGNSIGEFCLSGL

[5] = target: T1, Corticotropin-releasing factor receptor 2/Corticotropin-releasing factor-binding protein; experiment: activators of CRF receptor 2 with binding protein – uHTS hits, confirmation (AID 602473); assay type: functional; settings: read-out: EC50_Mean
[6] = target: T2, Low molecular weight phosphotyrosine protein phosphatase (Homo sapiens, UniProt P24666); assay type: functional; settings: read-out: IC50_Mean
T2 sequence (P24666 whole entry): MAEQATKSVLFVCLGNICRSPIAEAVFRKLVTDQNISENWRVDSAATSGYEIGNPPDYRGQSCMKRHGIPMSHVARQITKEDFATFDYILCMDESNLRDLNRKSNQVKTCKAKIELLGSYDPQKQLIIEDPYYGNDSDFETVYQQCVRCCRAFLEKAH

[7] = target: T2, Low molecular weight phosphotyrosine protein phosphatase; assay type: functional; settings: read-out: IC50_Mean; remark: listed apart in the source
Insulin-degrading enzyme [8] = target: T3, Insulin-degrading enzyme (Homo sapiens, UniProt P14735); experiment: activators of endogenous IDE in HEK cells, dose response, cell-based, fluorescence polarization (AID 588439); assay type: functional
T3 sequence (P14735 whole entry): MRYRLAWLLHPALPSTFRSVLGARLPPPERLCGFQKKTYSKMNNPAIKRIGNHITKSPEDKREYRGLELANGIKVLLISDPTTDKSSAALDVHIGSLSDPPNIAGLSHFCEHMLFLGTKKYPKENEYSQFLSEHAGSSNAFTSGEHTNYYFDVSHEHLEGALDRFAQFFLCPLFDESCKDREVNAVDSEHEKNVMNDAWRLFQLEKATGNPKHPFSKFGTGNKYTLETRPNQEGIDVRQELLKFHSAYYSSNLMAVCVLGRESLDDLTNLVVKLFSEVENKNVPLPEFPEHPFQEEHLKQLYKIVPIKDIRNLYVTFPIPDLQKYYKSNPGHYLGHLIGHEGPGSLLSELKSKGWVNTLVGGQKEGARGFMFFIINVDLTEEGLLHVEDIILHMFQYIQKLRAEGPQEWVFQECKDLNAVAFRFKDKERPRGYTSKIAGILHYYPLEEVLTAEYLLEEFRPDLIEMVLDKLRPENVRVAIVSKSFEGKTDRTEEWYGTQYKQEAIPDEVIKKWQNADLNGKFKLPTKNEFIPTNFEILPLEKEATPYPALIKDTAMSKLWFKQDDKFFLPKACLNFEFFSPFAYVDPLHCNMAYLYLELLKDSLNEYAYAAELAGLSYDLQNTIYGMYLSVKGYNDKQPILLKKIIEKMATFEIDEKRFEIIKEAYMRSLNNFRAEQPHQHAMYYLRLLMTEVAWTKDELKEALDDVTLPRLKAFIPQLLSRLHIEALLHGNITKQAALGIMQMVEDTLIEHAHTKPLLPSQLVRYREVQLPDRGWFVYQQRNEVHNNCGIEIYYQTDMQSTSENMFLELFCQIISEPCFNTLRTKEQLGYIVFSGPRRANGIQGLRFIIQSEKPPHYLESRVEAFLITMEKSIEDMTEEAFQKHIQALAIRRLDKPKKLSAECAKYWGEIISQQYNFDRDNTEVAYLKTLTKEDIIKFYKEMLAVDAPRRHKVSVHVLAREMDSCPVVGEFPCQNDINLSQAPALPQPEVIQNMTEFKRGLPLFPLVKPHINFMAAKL

Insulin-degrading enzyme [9] = target: T3, Insulin-degrading enzyme; experiment: activators of recombinant IDE enzyme, dose response, counter-screen for IDE activator project, biochemical, fluorescence polarization (AID 588681)
Nonstructural protein 1 = Nonstructural protein 1 (Influenza A virus, UniProt Q194T2); assay type: functional, Influenza A virus (A/California/07/2009(H1N1))
HEK293 [10] = experiment: optical interference in Abeta FP readout, dose response, artefact control for IDE activator project, biochemical, fluorescence polarization (AID 588442); assay type: functional, cell-based; settings: Homo sapiens
HEK293 [11] = experiment: HEK cell cytotoxicity by LDH release, dose response, cytotoxicity control for IDE activator project, fluorescence, HEK cells (AID 588440); assay type: functional, cell-based; settings: Homo sapiens;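 also: cytotoxicity by LDH release measuring loss of membrane integrity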
Cytochrome P450 2D6 = Cytochrome P450 2D6 (Homo sapiens, UniProt P10635);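 also: CYP2D6 member of a cytochrome P450 panel assay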
Sequence of Cytochrome P450 2D6 (P10635 whole entry): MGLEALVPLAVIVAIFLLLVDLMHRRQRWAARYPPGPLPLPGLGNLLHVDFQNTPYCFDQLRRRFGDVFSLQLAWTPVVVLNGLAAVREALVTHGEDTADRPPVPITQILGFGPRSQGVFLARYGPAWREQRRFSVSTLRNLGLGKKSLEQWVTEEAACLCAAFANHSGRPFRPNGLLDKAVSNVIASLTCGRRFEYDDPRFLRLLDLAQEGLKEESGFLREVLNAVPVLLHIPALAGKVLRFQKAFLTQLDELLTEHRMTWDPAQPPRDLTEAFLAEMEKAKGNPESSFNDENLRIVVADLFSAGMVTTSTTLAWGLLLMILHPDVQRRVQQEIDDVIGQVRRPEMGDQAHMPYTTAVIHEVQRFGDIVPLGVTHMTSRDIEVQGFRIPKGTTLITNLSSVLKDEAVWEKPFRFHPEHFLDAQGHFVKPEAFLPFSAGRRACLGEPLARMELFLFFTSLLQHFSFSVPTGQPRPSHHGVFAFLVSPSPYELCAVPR

Sequence of Nonstructural protein 1 (Q194T2 whole entry): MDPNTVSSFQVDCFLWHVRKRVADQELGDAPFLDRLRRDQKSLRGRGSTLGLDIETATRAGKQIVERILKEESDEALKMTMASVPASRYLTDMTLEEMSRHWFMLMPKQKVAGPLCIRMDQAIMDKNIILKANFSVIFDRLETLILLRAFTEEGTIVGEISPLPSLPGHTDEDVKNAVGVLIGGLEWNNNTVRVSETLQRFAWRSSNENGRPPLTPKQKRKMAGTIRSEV

SMILES: Cc1cccc(C(=O)Nc2nnc(C3=COCCO3)o2)c1
- AC50 [1]: 128 µM (active)

SMILES: CCN(c1ccccc1)c1nc(C#N)nc(N(CC)c2ccccc2)n1
- AC50 [2]: 3.66 µM (active)
- IC50 [3]: 6 µM (active)
- IC50 [4]: 0.723 µM (active)
- EC50 [5]: > 53 µM (inactive)

SMILES: O=C(OCCNc1nc(-c2ccccc2)nc2ccccc12)c1cccnc1
- IC50 [6]: 23.1 µM (inactive)
- IC50 [7]: 7.51 µM (active)

SMILES: O=C(O)c1ccc(N=Nc2c(O)ccc3ncccc23)cc1
- EC50 (Insulin-degrading enzyme [8]): 7.38 µM (active)
- EC50 (Insulin-degrading enzyme [9]): 6.69 µM (active)
- IC50 (Nonstructural protein 1): 3.07 µM (active)
- EC50 (HEK293 [10]): 30.9 µM (inactive)
- IC50 (HEK293 [11]): > 89.2 µM (inactive)

SMILES: Cc1c(CCO)c(=O)n(-c2ccccc2)n1S(=O)(=O)c1c(Cl)cc(Cl)cc1Cl
- AC50 [1]: 76.8 µM (active)
- AC50 (Cytochrome P450 2D6): 7.94 µM (inconclusive)
